Assay: Free radical scavenging by ESR with DPPH
Conditions: 100 μg mixed with alcohol solution of DPPH for 2 minutes
Method: The free radical scavenging capacity of the Bacopa monniera extract product was evaluated using spectrophotometric and electron spin resonance (ESR) techniques. ESR is considered to be the least ambiguous method for the detection of free radicals. 2,2-Diphenyl -1-picrylhydrazyl (DPPH) was used as a stable free radical. An alcohol solution of DPPH was mixed with 100 μg of a Bacopa monniera extract product for 2 minutes and then ESR measurements were conducted. Quercetine was used as a positive control for scavenging the free radicals.

## O=c1c(O)c(-c2ccc(O)c(O)c2)oc2cc(O)cc(O)c12 [quercetine, Quercetine]
  effect on DPPH free radical ESR peak: slight change in peak height
